The text below walks through data of patent US20250282820A1, “PEPTIDE COMPLEX HAVING TRKB BINDING ACTIVITY” (PEPTIDREAM INC, priority 2022, published 2025).

*1 amine or outer side, *2 acyl side, *3 side chain or, on linkers, in order; H or OH if unused. Where a SMILES comes first, the peptide text is derived from it. Bridges are numbered along the chain shown (N, C = ends). Roman numbers before positions name the chains, in order. [ ]: non-standard residue; d: D form. CO(CH2)2(OCH2CH2)17CO = O=C(CCOCCOCCOCCOCCOCCOCCOCCOCCOCCOCCOCCOCCOCCOCCOCCOCCOCCC(=O)[*:2])[*:1]; X1 = O=C(OCCOCCOCCOCCOCCOCCOCCOCCOCCOCCOCCOCCOC(=O)[*:2])[*:1]; PEG8 = NCCOCCOCCOCCOCCOCCOCCOCCOCCC(=O)O; 3Pal = N[C@@H](Cc1cccnc1)C(=O)O

In general, Emax refers to the greatest response seen or fitted, relative to the assay's reference.

Format in all cases: cell-based
The target in assay [1] is T1, TrkB (CellSensor TrkB-NFAT-bla CHO-K1 Cell) (Homo sapiens, UniProt Q16620).
T1 construct: host or cells: CHO-K1 (CellSensor TrkB-NFAT-bla CHO-K1)
The experiment in a line: pERK1/2 AlphaLISA assay (phosphorylation of ERK) for TrkB agonist activity. As to conditions: class = peptide concentration giving 50% or more activity; BDNF maximum signal = 100%, no stimulation = 0%; 15 minutes of stimulation. On the procedure:
To evaluate the TrkB activation potency of the TrkB agonist peptide of the present invention, the phosphorylation of ERK was examined. CellSensor (registered trademark) TrkB-NFAT-bla CHO-K1 Cell (Invitrogen) was cultured in DMEM, high glucose, GlutaMAX (registered trademark) Supplement, and pyruvate (Thermo), comprising 10% FBS (Thermo) and 1× Non-essential amino acids (Thermo), 25 mM HEPES (Thermo), 50 ug/mL Gentamicin, 5 ug/mL Blasticidin (Thermo), and 200 ug/mL Zeocin (Thermo). After the cells were detached using Accutase (Innovative Cell Technologies), they were seeded into a 96-well plate for adherent cultures at 12,500 cells per well and cultured overnight. The next day, for starvation, the culture solution above was replaced with a nutrient starvation medium comprising 0.1% BSA (Sigma), wherein FBS, Blasticidin, and Zeocin were removed from the culture medium, and culturing was performed for 4 hours. Thereafter, Recombinant Human BDNF Protein (R&D Systems) or a peptide was added, and after 15 minutes of stimulation, cells were lysed in the Lysis Buffer provided with the AlphaLISA SureFire Ultra p-Erk1/2 (Thr202/Tyr204) assay kit (PerkinElmer). The assay was performed according to the kit protocol. The signals were detected using a SpectraMax Paradigm Multi-Mode Microplate Reader (Molecular Devices). The obtained signals were analyzed with GraphPad Prism, and the activity (%) was calculated with the maximum value of the signals induced by BDNF as 100% and a signal with no stimulation as 0%. The peptide with 50% or more activity when 1 nM of the peptide was added was evaluated as A, and the peptide with 50% or more activity when 10 nM of the peptide was added was evaluated as B.
The BDNF was evaluated at 8 points (0.0006 nM to 10 nM) from 10 nM using 4-fold dilutions.
For dimer structures Nos. 1 to 3, the peptide was evaluated at 1 nM, 10 nM, and 100 nM, and, for other dimer structure numbers, the peptide was evaluated at 0.1 nM, 1 nM, and 10 nM. When creating the concentration dependence curve, the BDNF and the peptides were evaluated at 8 points (0.006 nM to 100 nM) from 100 nM using 4-fold dilutions.
On the technique in general: In Alpha technology, singlet oxygen from a donor bead excites a nearby acceptor bead.

Assay [2] deals with T1, TrkB (CellSensor TrkB-NFAT-bla CHO-K1 Cell). The experiment in a line: NFAT transcriptional reporter assay for TrkB agonist activity. As to conditions: class = peptide concentration giving 50% or more activity; BDNF maximum signal = 100%, no stimulation = 0%; 5 hours culture. On the procedure: To evaluate the TrkB activation potency of the TrkB agonist peptide of the present invention, transcriptional activity was examined using transcriptional reporters. The CellSensor (registered trademark) TrkB-NFAT-bla CHO-K1 Cell (Invitrogen) used in the AlphaLISA assay was cultured in the medium above. After the cells were detached using Accutase (Innovative Cell Technologies), the cells were suspended in an assay medium, wherein Blasticidin and Zeocin were removed, then seeded into a 96-well plate for adherent cultures at 12,500 cells per well and cultured overnight. Then, BDNF or a peptide was added thereto, and the cells were further cultured in a CO2 incubator for 5 hours. After the 96-well plate was removed from the incubator and brought to room temperature, a detection reagent (LiveBLAzer (registered trademark)-FRET B/G (CCF4-AM) Substrate Mixture) was added while protected from the light, and the 96-well plate was incubated while protected from the light in a moisture box with a lid for 2 hours. For signal detection, a EnVision 2104 Multilabel Plate Reader (PerkinElmer) was used, and the ratio of fluorescence emission value (460 nm/535 nm) was calculated. The obtained numerical values were analyzed with GraphPad Prism, and the activity (%) was calculated with the maximum value of the signals induced by BDNF as 100% and a signal with no stimulation as 0%. The peptide with 50% or more activity when 1 nM of the peptide was added was evaluated as A, the peptide with 50% or more activity when 10 nM of the peptide was added was evaluated as B, and the peptide with 50% or more activity when 100 nM of the peptide was added was evaluated as C. Those that were not evaluated were listed as not tested.
The BDNF was evaluated at 7 points (0.0024 nM to 10 nM) from 10 nM using 4-fold dilutions.
For dimer structures Nos. 1 to 3, the peptide was evaluated at 1 nM, 10 nM, and 100 nM, and, for other dimer structure numbers, the peptide was evaluated at 0.1 nM, 1 nM, and 10 nM. When creating the concentration dependence curve, the BDNF and the peptides were evaluated at […] (0.006 nM to 100 nM) […] using 4-fold dilutions.

Assay [3] addresses TrkB (Homo sapiens, UniProt Q16620). The experiment in a line: PathHunter eXpress TrkB Functional Assay (phosphorylation of TrkB). Conditions: maximum signal induced by BDNF = 100%; stimulation for 3 hours. Summed up:
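PathHunter TrkB cells, cultured 48 h, were stimulated 3 h with peptide or BDNF, then detection reagent added for 60 min at room temperature; luminescence read. Activity (%) scaled from unstimulated (0%) to maximal BDNF signal (100%); peptides tested over 0.006104-100 nM, 0.032-100 nM or 0.01-10 nM ranges.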

T1 sequence (Q16620 32-822): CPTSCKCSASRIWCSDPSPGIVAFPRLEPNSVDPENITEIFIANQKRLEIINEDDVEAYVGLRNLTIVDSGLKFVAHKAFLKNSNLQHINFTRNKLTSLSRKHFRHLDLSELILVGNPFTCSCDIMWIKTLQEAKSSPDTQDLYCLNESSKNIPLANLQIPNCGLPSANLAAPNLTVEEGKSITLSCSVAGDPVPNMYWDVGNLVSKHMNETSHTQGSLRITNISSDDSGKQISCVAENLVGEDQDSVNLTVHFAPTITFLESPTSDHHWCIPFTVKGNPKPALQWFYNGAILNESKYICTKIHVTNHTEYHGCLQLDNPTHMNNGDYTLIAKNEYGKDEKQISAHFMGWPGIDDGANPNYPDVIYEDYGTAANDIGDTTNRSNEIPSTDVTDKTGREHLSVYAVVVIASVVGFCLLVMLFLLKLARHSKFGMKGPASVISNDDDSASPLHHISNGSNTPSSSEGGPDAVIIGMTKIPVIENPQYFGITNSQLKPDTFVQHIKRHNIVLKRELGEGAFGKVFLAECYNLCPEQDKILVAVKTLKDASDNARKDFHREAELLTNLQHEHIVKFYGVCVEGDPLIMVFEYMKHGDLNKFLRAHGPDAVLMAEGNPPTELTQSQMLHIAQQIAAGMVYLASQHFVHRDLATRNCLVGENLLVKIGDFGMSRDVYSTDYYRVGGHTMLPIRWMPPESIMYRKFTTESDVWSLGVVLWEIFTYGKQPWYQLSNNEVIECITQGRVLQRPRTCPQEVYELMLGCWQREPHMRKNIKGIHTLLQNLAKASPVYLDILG
TrkB, sequence (Q16620 32-822): as above

Turning to `CC(C)C[C@@H]1NC(=O)[C@H](Cc2ccccc2)NC(=O)CSC[C@@H](C(=O)NCC(=O)NCCOCCOCCOCCOCCOCCOCCOCCOCCC(=O)NCCCC[C@H](NC(=O)CCOCCOCCOCCOCCOCCOCCOCCOCCNC(=O)CNC(=O)[C@@H]2CSCC(=O)N[C@@H](Cc3ccccc3)C(=O)N[C@@H](CC(C)C)C(=O)N3CCC[C@H]3C(=O)N[C@@H](Cc3ccc(O)cc3)C(=O)N[C@@H](Cc3cccnc3)C(=O)N[C@@H](Cc3c[nH]c4ccccc34)C(=O)N3CCC[C@H]3C(=O)N[C@@H]([C@@H](C)O)C(=O)N[C@@H](Cc3ccc(O)cc3)C(=O)N[C@@H](CO)C(=O)N[C@@H](CCC(=O)O)C(=O)N[C@@H](Cc3cccnc3)C(=O)N[C@@H](C(C)C)C(=O)N[C@@H](CCC(=O)O)C(=O)N2)C(N)=O)NC(=O)[C@H](CCC(=O)O)NC(=O)[C@H](C(C)C)NC(=O)[C@H](Cc2cccnc2)NC(=O)[C@H](CCC(=O)O)NC(=O)[C@H](CO)NC(=O)[C@H](Cc2ccc(O)cc2)NC(=O)[C@H]([C@@H](C)O)NC(=O)[C@@H]2CCCN2C(=O)[C@H](Cc2c[nH]c3ccccc23)NC(=O)[C@H](Cc2cccnc2)NC(=O)[C@H](Cc2ccc(O)cc2)NC(=O)[C@@H]2CCCN2C1=O` [compound 14] (I: {CH2CO}-FLPY[3Pal]WPTYSE[3Pal]VECG[PEG8]K-NH2 / II: {CH2CO}-FLPY[3Pal]WPTYSE[3Pal]VECG[PEG8]; amide I:18-II:C (inferred); thioether I:N-I:15, II:N-II:15 (inferred)), the “pERK (aLISA) Assay Results” value in assay [1] is reported as “A (The peptide with 50% or more activity when 1 nM of the peptide was added was evaluated as A)”. The “NFAT Assay Results” value in assay [2] is reported as “A (The peptide with 50% or more activity when 1 nM of the peptide was added was evaluated as A)”. In addition, the Emax in assay [3] stood at 86%.

As for `CC(C)[C@@H]1NC(=O)[C@H](Cc2cccnc2)NC(=O)[C@H](CCC(=O)O)NC(=O)[C@H](CO)NC(=O)[C@H](Cc2ccc(O)cc2)NC(=O)[C@H]([C@@H](C)O)NC(=O)[C@@H]2CCCN2C(=O)[C@H](Cc2c[nH]c3ccccc23)NC(=O)[C@H](Cc2cccnc2)NC(=O)[C@H](Cc2ccc(O)cc2)NC(=O)[C@@H]2CCCN2C(=O)[C@H](CO)NC(=O)[C@H](Cc2ccccc2)NC(=O)CSC[C@@H](C(=O)NCC(=O)N[C@@H](CCCCNC(=O)CCOCCOCCOCCOCCOCCOCCOCCOCCOCCOCCOCCOCCOCCOCCOCCOCCOCCC(=O)NCCCC[C@H](NC(=O)CNC(=O)[C@@H]2CSCC(=O)N[C@@H](Cc3ccccc3)C(=O)N[C@@H](CO)C(=O)N3CCC[C@H]3C(=O)N[C@@H](Cc3ccc(O)cc3)C(=O)N[C@@H](Cc3cccnc3)C(=O)N[C@@H](Cc3c[nH]c4ccccc34)C(=O)N3CCC[C@H]3C(=O)N[C@@H]([C@@H](C)O)C(=O)N[C@@H](Cc3ccc(O)cc3)C(=O)N[C@@H](CO)C(=O)N[C@@H](CCC(=O)O)C(=O)N[C@@H](Cc3cccnc3)C(=O)N[C@@H](C(C)C)C(=O)N[C@@H](CCC(=O)O)C(=O)N2)C(N)=O)C(N)=O)NC(=O)[C@H](CCC(=O)O)NC1=O` [compound 49] (I: {CH2CO}-FSPY[3Pal]WPTYSE[3Pal]VECGK-NH2 / II: {CH2CO}-FSPY[3Pal]WPTYSE[3Pal]VECGK-NH2; linker I:17-II:17 via CO(CH2)2(OCH2CH2)17CO; thioether I:N-I:15, II:N-II:15), the “pERK (aLISA) Assay Results” value in assay [1] is listed as “A (The peptide with 50% or more activity when 1 nM of the peptide was added was evaluated as A)”. Also, in assay [2], the “NFAT Assay Results” value is recorded as “A (The peptide with 50% or more activity when 1 nM of the peptide was added was evaluated as A)”. Further, in assay [3], the Emax stood at 107%.

For the compound `CC(C)[C@@H]1NC(=O)[C@H](Cc2cccnc2)NC(=O)[C@H](CCC(=O)O)NC(=O)[C@H](CO)NC(=O)[C@H](Cc2ccc(O)cc2)NC(=O)[C@H]([C@@H](C)O)NC(=O)[C@@H]2CCCN2C(=O)[C@H](Cc2c[nH]c3ccccc23)NC(=O)[C@H](Cc2cccnc2)NC(=O)[C@H](Cc2ccc(O)cc2)NC(=O)[C@@H]2CCCN2C(=O)[C@H](CO)NC(=O)[C@H](Cc2ccccc2)NC(=O)CSC[C@@H](C(=O)NCC(=O)NCCOCCOCCOCCOCCOCCOCCOCCOCCC(=O)NCCCC[C@H](NC(=O)CCOCCOCCOCCOCCOCCOCCOCCOCCNC(=O)CNC(=O)[C@@H]2CSCC(=O)N[C@@H](Cc3ccccc3)C(=O)N[C@@H](CO)C(=O)N3CCC[C@H]3C(=O)N[C@@H](Cc3ccc(O)cc3)C(=O)N[C@@H](Cc3cccnc3)C(=O)N[C@@H](Cc3c[nH]c4ccccc34)C(=O)N3CCC[C@H]3C(=O)N[C@@H]([C@@H](C)O)C(=O)N[C@@H](Cc3ccc(O)cc3)C(=O)N[C@@H](CO)C(=O)N[C@@H](CCC(=O)O)C(=O)N[C@@H](Cc3cccnc3)C(=O)N[C@@H](C(C)C)C(=O)N[C@@H](CCC(=O)O)C(=O)N2)C(N)=O)NC(=O)[C@H](CCC(=O)O)NC1=O` [compound 15] (I: {CH2CO}-FSPY[3Pal]WPTYSE[3Pal]VECG[PEG8]K-NH2 / II: {CH2CO}-FSPY[3Pal]WPTYSE[3Pal]VECG[PEG8]; amide I:18-II:C (inferred); thioether I:N-I:15, II:N-II:15 (inferred)), the “pERK (aLISA) Assay Results” value in assay [1] is recorded as “A (The peptide with 50% or more activity when 1 nM of the peptide was added was evaluated as A)”. In addition, in assay [2], the “NFAT Assay Results” value is “A (The peptide with 50% or more activity when 1 nM of the peptide was added was evaluated as A)”. Besides, in assay [3], the Emax was 104%.

In the case of `CC(C)[C@@H]1NC(=O)[C@H](Cc2cccnc2)NC(=O)[C@H](CCC(=O)O)NC(=O)[C@H](CO)NC(=O)[C@H](Cc2ccc(O)cc2)NC(=O)[C@H]([C@@H](C)O)NC(=O)[C@@H]2CCCN2C(=O)[C@H](Cc2c[nH]c3ccccc23)NC(=O)[C@H](Cc2cccnc2)NC(=O)[C@H](Cc2ccc(O)cc2)NC(=O)[C@@H]2CCCN2C(=O)[C@H](CO)NC(=O)[C@H](Cc2ccccc2)NC(=O)CSC[C@@H](C(=O)NCC(=O)N[C@@H](CCCCNC(=O)OCCOCCOCCOCCOCCOCCOCCOCCOCCOCCOCCOCCOC(=O)NCCCC[C@H](NC(=O)CNC(=O)[C@@H]2CSCC(=O)N[C@@H](Cc3ccccc3)C(=O)N[C@@H](CO)C(=O)N3CCC[C@H]3C(=O)N[C@@H](Cc3ccc(O)cc3)C(=O)N[C@@H](Cc3cccnc3)C(=O)N[C@@H](Cc3c[nH]c4ccccc34)C(=O)N3CCC[C@H]3C(=O)N[C@@H]([C@@H](C)O)C(=O)N[C@@H](Cc3ccc(O)cc3)C(=O)N[C@@H](CO)C(=O)N[C@@H](CCC(=O)O)C(=O)N[C@@H](Cc3cccnc3)C(=O)N[C@@H](C(C)C)C(=O)N[C@@H](CCC(=O)O)C(=O)N2)C(N)=O)C(N)=O)NC(=O)[C@H](CCC(=O)O)NC1=O` [compound 55] (I: {CH2CO}-FSPY[3Pal]WPTYSE[3Pal]VECGK-NH2 / II: {CH2CO}-FSPY[3Pal]WPTYSE[3Pal]VECGK-NH2; linker I:17-II:17 via X1; thioether I:N-I:15, II:N-II:15), the “pERK (aLISA) Assay Results” value in assay [1] was “A (The peptide with 50% or more activity when 1 nM of the peptide was added was evaluated as A)”. Besides, the “NFAT Assay Results” value in assay [2] was “A (The peptide with 50% or more activity when 1 nM of the peptide was added was evaluated as A)”. Further, in assay [3], the Emax came to 104%.
